In US20090012071A1, “4-SUBSTITUTED-1H-ISOTHIAZOLO[5,4-B][1,4]OXAZINO[2,3,4-IJ]QUINOLINE-7,8(2H,9H)-DIONES AND RELATED COMPOUNDS AS ANTI-INFECTIVE AGENTS” (priority 2007, published 2009):

Key:
E. coli ATCC 25922 = test: Minimum inhibitory concentration (MIC) assay, broth microdilution; type: cell-based
Description: (§1) The antimicrobial activity of the compounds of the invention may be evaluated by a number of methods, including the following visual minimum inhibitory concentration (MIC) assay. This assay determines the minimum concentration of compound required to inhibit growth of a bacterial strain.
(§2) Whole-cell antibacterial activity is determined by broth microdilution using conditions recommended by the NCCLS (see National Committee for Clinical Laboratory Standards. 2001. Performance standards for antimicrobial susceptibility testing: 11th informational supplement. Vol. 21, no. 1, M100-S11. National Committee for Clinical Laboratory Standards, Wayne, Pa.). Test compounds are dissolved in DMSO and diluted 1:50 in Mueller-Hinton II broth (Becton-Dickinson) to produce a 256 μg/ml stock solution. In a 96-well microtiter plate, the compound solution is serially two-fold diluted in Mueller-Hinton II broth. After the compounds are diluted, a 50 μl aliquot of the test organism (˜1×10^6 cfu/mL) is added to each well of the microtiter plate. The final test concentrations ranges from 0.125-128 μg/mL. Inoculated plates are incubated in ambient air at 37° C. for 18 to 24 hours. […] The minimum inhibitory concentration (MIC) is determined as the lowest concentration of compound that inhibited visible growth of the test organism.

[1] = system: S. aureus ATCC 29213 (MSSA); test: as above; type: cell-based; details: methicillan sufficient S. aureus
Description: as §1, §2

[2] = system: MRSA S. aureus (FQR700699); test: as above; type: cell-based; parameters: MIC MRSA: unit not given beside the values; details: for MIC MRSA: Table I
Description: as §1
Whole-cell antibacterial activity is determined by broth microdilution using conditions recommended by the NCCLS (see National Committee for Clinical Laboratory Standards. 2001. Performance standards for antimicrobial susceptibility testing: 11th informational supplement. Vol. 21, no. 1, M100-S11. National Committee for Clinical Laboratory Standards, Wayne, Pa.). Test compounds are dissolved in DMSO and diluted 1:50 in Mueller-Hinton II broth (Becton-Dickinson) to produce a 256 μg/ml stock solution. In a 96-well microtiter plate, the compound solution is serially two-fold diluted in Mueller-Hinton II broth. After the compounds are diluted, a 50 μl aliquot of the test organism (˜1×10^6 cfu/mL) is added to each well of the microtiter plate. The final test concentrations ranges from 0.125-128 μg/mL. Inoculated plates are incubated in ambient air at 37° C. for 18 to 24 hours. The organisms selected for testing included laboratory strains S. aureus ATCC 29213 and E. coli ATCC 25922 (strains purchased from American Type Culture Collection, Manassas, Va.), S. aureus FQR700699, and Paeruginosa 27853. The minimum inhibitory concentration (MIC) is determined as the lowest concentration of compound that inhibited visible growth of the test organism.

[3] = system: CHO (Chinese hamster ovary); details: CHO cells, positive control; cited from earlier work
[4] = system: Hep 2 (laryngeal carcinoma); details: Hep 2 cells, positive control; cited from earlier work

SMILES: C[C@H]1COc2c(N3CC[C@@H](C(C)(C)N)C3)c(F)cc3c(=O)c4c(=O)[nH]sc4n1c23 [Compound II, (S)-4-((R)-3-(2-aminopropan-2-yl)pyrrolidin-1-yl)-5-fluoro-1-methyl-1H-isothiazolo[5,4-B][1,4]oxazino[2,3,4-ij]quinoline-7,8(2H,9H)-dione]
- minimal inhibitory concentration (MIC) (E. coli ATCC 25922): 0.062
- minimal inhibitory concentration (MIC) [1]: 0.016
- minimal inhibitory concentration (MIC) ([2]; methicillan resistant S. aureus): 0.125

SMILES: CC(C)(C)c1ccc(C(O)CCCN2CCC(C(O)(c3ccccc3)c3ccccc3)CC2)cc1 (stereo not drawn) [Terfenadine]
- CC50 [3]: 4.3 to 6.5 µM
- CC50 [4]: 3 to 5 µM

SMILES: C[C@H]1COc2c(N3CCN(C)CC3)c(F)cc3c(=O)c4c(=O)[nH]sc4n1c23 [compound 6, (S)-5-fluoro-1-methyl-4-(4-methylpiperazin-1-yl)-1H-isothiazolo[5,4-b][1,4]oxazino[2,3,4-ij]quinoline-7,8(2H,9H)-dione]
- MIC MRSA [2]: 4

SMILES: C[C@H]1COc2c(N3CC[C@H](N)C3)c(F)cc3c(=O)c4c(=O)[nH]sc4n1c23 [compound 7, (S)-4-((S)-3-aminopyrrolidin-1-yl)-5-fluoro-1-methyl-1H-isothiazolo[5,4-b][1,4]oxazino[2,3,4-ij]quinoline-7,8(2H,9H)-dione]
- MIC MRSA [2]: 1

SMILES: C[C@H]1COc2c(N3CC[C@@H](CN)C3)c(F)cc3c(=O)c4c(=O)[nH]sc4n1c23 [compound 8, (S)-4-((S)-3-(aminomethyl)pyrrolidin-1-yl)-5-fluoro-1-methyl-1H-isothiazolo[5,4-b][1,4]oxazino[2,3,4-ij]quinoline-7,8(2H,9H)-dione]
- MIC MRSA [2]: 0.5

SMILES: C[C@H]1COc2c(N3CCNCC3)c(F)cc3c(=O)c4c(=O)[nH]sc4n1c23 [compound 9, (S)-5-fluoro-1-methyl-4-(piperazin-1-yl)-1H-isothiazolo[5,4-b][1,4]oxazino[2,3,4-ij]quinoline-7,8(2H,9H)-dione]
- MIC MRSA [2]: 8
